Laboratory results as given in US9879008B2, “2,3,4,6-tetra-substituted benzene-1,5-diamine derivatives, preparation method therefor and medicinal use thereof” (SHANGHAI HAIYAN PHARMACEUTICAL TECHNOLOGY CO., LTD., priority 2014, dated 2018).

How the values were obtained:
[1] = molecular target: T1, wild-type EGFR kinase (Homo sapiens, UniProt P00533); test: z-lyte inhibition test against wild-type EGFR kinase; format: biochemical; conditions: 10 μM ATP, read-out: EGFR WT (IC50/nM);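 further: reaction volume 10 µL holding 0.8 ng/µL enzyme and 2 µM Tyr04 substrate, with DMSO at 2% once compounds are present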
T1 construct: purchased Invitrogen PV3872
T1 sequence (P00533 25-1210): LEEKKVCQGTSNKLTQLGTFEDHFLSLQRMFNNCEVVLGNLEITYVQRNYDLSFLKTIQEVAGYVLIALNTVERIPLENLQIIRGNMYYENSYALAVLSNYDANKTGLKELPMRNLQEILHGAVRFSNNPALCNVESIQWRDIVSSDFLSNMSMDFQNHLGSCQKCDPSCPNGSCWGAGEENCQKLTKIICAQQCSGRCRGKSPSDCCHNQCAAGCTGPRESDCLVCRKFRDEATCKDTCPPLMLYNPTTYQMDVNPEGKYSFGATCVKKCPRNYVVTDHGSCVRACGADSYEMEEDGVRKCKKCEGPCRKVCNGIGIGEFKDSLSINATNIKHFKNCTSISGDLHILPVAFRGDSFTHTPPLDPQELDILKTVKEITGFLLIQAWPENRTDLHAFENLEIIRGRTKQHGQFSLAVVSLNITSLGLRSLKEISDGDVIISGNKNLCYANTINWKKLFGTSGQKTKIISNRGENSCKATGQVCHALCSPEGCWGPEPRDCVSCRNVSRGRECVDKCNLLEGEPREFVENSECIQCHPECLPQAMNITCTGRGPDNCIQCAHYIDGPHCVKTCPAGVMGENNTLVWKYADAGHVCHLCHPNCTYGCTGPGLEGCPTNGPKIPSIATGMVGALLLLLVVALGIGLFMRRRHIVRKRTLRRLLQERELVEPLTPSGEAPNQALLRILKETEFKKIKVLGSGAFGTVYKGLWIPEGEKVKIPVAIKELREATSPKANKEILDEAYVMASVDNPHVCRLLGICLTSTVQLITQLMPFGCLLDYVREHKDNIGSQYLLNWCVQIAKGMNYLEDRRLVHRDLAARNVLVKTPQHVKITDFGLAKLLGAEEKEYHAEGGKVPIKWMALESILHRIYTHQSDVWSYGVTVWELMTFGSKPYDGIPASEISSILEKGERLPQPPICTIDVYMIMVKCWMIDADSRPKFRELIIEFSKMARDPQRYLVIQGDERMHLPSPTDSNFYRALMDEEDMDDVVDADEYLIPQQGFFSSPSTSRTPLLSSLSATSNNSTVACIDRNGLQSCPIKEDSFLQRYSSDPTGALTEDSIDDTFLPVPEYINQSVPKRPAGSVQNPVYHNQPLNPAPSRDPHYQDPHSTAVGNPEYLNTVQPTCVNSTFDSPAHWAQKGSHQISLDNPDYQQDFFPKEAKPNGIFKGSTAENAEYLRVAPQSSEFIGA

[2] = test system: NIH3T3 cell; test: MTT cytotoxicity against NIH3T3 cells; format: cell-based; conditions: Mus musculus, NIH3T3; cytotoxicity, MTT, 72 h; read-out: MTT assay against NIH3T3 cell (IC50/nM)
[3] = test system: H1975 cells; test: ELISA assay for cell activity of EGFR T790M inhibitor, H1975 cells; conditions: for Selective inhibitory activities against cell [IC50(A431 cell)/IC50(H1975 cell)]: ELISA, ratio of cell IC50 values; for IC50: Homo sapiens, NCI-H1975, 1 h, read-out: H1975 cell (IC50/nM)
[4] = test system: A431 cell; test: MTT cytostatic activity, A431 cell; format: cell-based; conditions: Homo sapiens, A-431; MTT, 72 h; read-out: A431 cell (IC50/nM)
[5] = test system: A431 cells; test: ELISA assay for cell activity, EGF-treated A431 cells; format: cell-based; conditions: Homo sapiens, A-431, compound 1 h, then EGF 45 min;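 further: Serum-starved A431 cells, ELISA on lysates read as OD450 minus OD570, inhibition scaled between EGF-stimulated wells (0%) and unstimulated cell control (100%), DMSO 0.5% final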
[6] = test system: H1975 cell; test: MTT cytostatic activity, H1975 cell; format: cell-based; conditions: MTT; for IC50: Homo sapiens, NCI-H1975, 72 h, read-out: H1975 cell (IC50/nM); for Selective inhibitory activity against cells [IC50(A431 cell)/IC50(H1975 cell)]: ratio of cell IC50 values;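 on all read-outs here: cells in 96-well plates exposed to compound for 72 h, then given MTT for a further 4 h at 37 °C under 5% CO2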

Row | IC50 [1] [nM] | Selective inhibitory activities against cell [IC50(A431 cell)/IC50(H1975 cell)] [3] | IC50 [3] [nM] | IC50 [4] [nM] | IC50 [5] [nM] | IC50 [6] [nM] | Selective inhibitory activity against cells [IC50(A431 cell)/IC50(H1975 cell)] [6] | SMILES | IC50 [2] [nM]
1 | 20 | 29.5 | 13 | 1140 | 383 | 22 | 52 | C=CC(=O)Nc1cc(Nc2ncc(Cl)c(OC3CCCN(S(C)(=O)=O)CC3)n2)c(OC)cc1N(C)CCN(C)C (centres unmarked) [Compound J-1, N-(5-(5-chloro-4-(1-(methylsulfonyl)azacycloheptane-4-oxy)pyrimidine-2-amino)-2-((2-(dimethylamino)ethyl)(methyl)amino)-4-methoxylphenyl)acrylamide] | > 10000
2 |  | 3.3 | 70 | 989 | 234 | 66 | 15 | C=CC(=O)Nc1cc(Nc2nccc(OC3CN(S(=O)(=O)c4ccccc4)C3)n2)c(OC)cc1N(C)CCN(C)C [Compound J-7, N-(2-((2-(dimethylamino)ethyl)(methyl)amino)-4-methoxy-5-(4-(1-(phenylsulfonyl)azetidine-3-oxy)pyrimidine-2-amino)phenyl)acrylamide] | > 10000
3 | 12 | 10 | 38 | 1580 | 379 | 14 | 113 | C=CC(=O)Nc1cc(Nc2ncc(Cl)c(OC3CN(S(C)(=O)=O)C3)n2)c(OC)cc1N(C)CCN(C)C [Compound J-11, N-(5-(5-chloro-4-(1-(methylsulfonyl)azetidine-3-oxy)pyrimidine-2amino)-2-((2-(dimethylamino)ethyl)(methyl)amino)-4-methoxyphenyl)acrylamide] | > 10000
4 | 8 | 1.2 | 129 | 1880 | 155 | 121 | 15.5 | C=CC(=O)Nc1cc(Nc2nccc(OC3CN(c4cccnc4)C3)n2)c(OC)cc1N(C)CCN(C)C [Compound J-17] | > 10000
5 | 30 | 4.3 | 256 | 2960 | 1100 | 184 | 16.1 | C=CC(=O)Nc1cc(Nc2nccc(OC3CN(c4cnc5c(ccn5C)c4)C3)n2)c(OC)cc1N1CCC(N(C)C)CC1 [Compound J-18] | 
6 | 114 | 85 | 30 | 3050 | 2550 | 57 | 53.6 | C=CC(=O)Nc1cc(Nc2ncc(Cl)c(OC3CN(C(C)=O)C3)n2)c(OC)cc1N1CCC(N(C)C)CC1 [Compound J-27] | 9830
7 | 49 | 32.5 | 20 | 3150 | 649 | 11 | 286.3 | C=CC(=O)Nc1cc(Nc2ncc(Cl)c(OC3CN(C(C)=O)C3)n2)c(OC)cc1N(C)CCN(C)C [Compound J-28] | > 10000
8 | 6 | 7 | 23 | 1100 | 156 | 17 | 64.5 | C=CC(=O)Nc1cc(Nc2ncc(F)c(OC3CN(S(C)(=O)=O)C3)n2)c(OC)cc1N1CCC(N(C)C)CC1 [Compound J-29] | > 10000
9 | 95 | 17 | 113 | 6010 | 1910 | 121 | 50 | C=CC(=O)Nc1cc(Nc2ncc(F)c(OC3CN(C(C)=O)C3)n2)c(OC)cc1N1CCC(N(C)C)CC1 [Compound J-30] | > 10000
10 | 27 | 84 | 5 | 1720 | 419 | 4 | 429 | C=CC(=O)Nc1cc(Nc2ncc(C(F)(F)F)c(OC3CN(S(C)(=O)=O)C3)n2)c(OC)cc1N1CCC(N(C)C)CC1 [Compound J-31] | > 3000
11 | 80 | 57.2 | 52 | 2900 | 2970 | 35 | 82.8 | C=CC(=O)Nc1cc(Nc2ncc(Cl)c(OC3CCCN(C(C)=O)CC3)n2)c(OC)cc1N1CCC(N(C)C)CC1 (centres unmarked) [Compound J-35] | > 10000
12 | 22 | 26 | 36 | 2140 | 919 | 27 | 79.4 | C=CC(=O)Nc1cc(Nc2ncc(Cl)c(OC3CCCN(S(C)(=O)=O)CC3)n2)c(OC)cc1N1CCC(N(C)C)CC1 (centres unmarked) [Compound J-37] | > 10000
13 | 170 | 60 | 75 | 4670 | 4490 | 66 | 71 | C=CC(=O)Nc1cc(Nc2ncc(Cl)c(OC3CCN(C(C)=O)CC3)n2)c(OC)cc1N1CCC(N(C)C)CC1 [Compound J-38] | > 10000
14 | 39 | 11 | 123 | 4300 | 1320 | 72 | 60 | C=CC(=O)Nc1cc(Nc2ncc(Cl)c(OC3CCN(S(C)(=O)=O)CC3)n2)c(OC)cc1N1CCC(N(C)C)CC1 [Compound J-39] | > 10000
15 | 47 | 7.1 | 95 | 2950 | 670 | 50 | 59 | C=CC(=O)Nc1cc(Nc2ncc(Cl)c(O[C@@H]3CCCN(S(C)(=O)=O)C3)n2)c(OC)cc1N(C)CCN(C)C [Compound J-40, (R)—N-(5-(5-chloro-4-(1-(methylsulfonyl)piperidine-3-oxy)pyrimidine-2-amino)-2-((2-(dimethylamino)ethyl)(methyl)amino)-4-methoxyphenyl)acrylamide] | > 10000
16 | 41 | 44 | 18 | 2740 | 784 | 19 | 144.1 | C=CC(=O)Nc1cc(Nc2ncc(Cl)c(O[C@@H]3CCN(S(C)(=O)=O)C3)n2)c(OC)cc1N1CCC(N(C)C)CC1 [Compound J-45, (R)—N-(5-(5-chloro-4-(1-(methylsulfonyl)pyrrolidine-3-oxy)pyrimidine-2-amino)-2-(4-(dimethylamino)piperidine-1-yl)-4-methoxyphenyl)acrylamide] | 8200
17 | 49 | 64 | 13 | 2920 | 832 | 17 | 171.8 | C=CC(=O)Nc1cc(Nc2ncc(Cl)c(O[C@H]3CCN(S(C)(=O)=O)C3)n2)c(OC)cc1N1CCC(N(C)C)CC1 [Compound J-46] | > 10000
18 | 227 | 28.2 | 97 | 7380 | 2740 | 46 | 160.5 | C=CC(=O)Nc1cc(Nc2ncc(Cl)c(O[C@@H]3CCN(C(C)=O)C3)n2)c(OC)cc1N1CCC(N(C)C)CC1 [Compound J-47] | > 10000
19 | 610 | 37.1 | 102 | 4620 | 3790 | 56 | 82.4 | C=CC(=O)Nc1cc(Nc2ncc(Cl)c(O[C@H]3CCN(C(C)=O)C3)n2)c(OC)cc1N1CCC(N(C)C)CC1 [Compound J-48] | > 10000
20 | 4 | 4.5 | 11 | 534 | 49 | 7 | 76.3 | C=CC(=O)Nc1cc(Nc2ncc(F)c(SC3CN(S(C)(=O)=O)C3)n2)c(OC)cc1N1CCC(N(C)C)CC1 [Compound J-57] | > 10000
21 |  | 1.3 | 1340 | 5060 | 1760 | 359 | 14.1 | C=CC(=O)Nc1cc(Nc2nccc(C3CN(c4cnc5c(cnn5C)c4)C3)n2)c(OC)cc1N(C)CCN(C)C [compound 2, reference compound] | 
